# Measurements taken from the supplement of paper PMC11061612.
# Experiments:
# Test in all cases: Bliss excess, mean over the matrix (fraction); higher = more synergy
# [1] = system: Mewo (Melanoma)
# Outline: (§1)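 Cell lines in DMEM/F12 or RPMI with 10% FBS were plated in 1536-well plates, held 24 hours at 37°C, 5% CO2, then given two-drug dose matrices for 72 hours (DMSO typically 0.2%). Viability was read by CellTiter-Glo 2.0 luminescence and scaled as inhibition from 0 (vehicle wells) to 1 (blank wells). Combination Emax is the second-highest inhibition in the matrix; Bliss excess is observed combination effect minus expected EA + EB − EA·EB, EA and EB being single-agent effects.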
# [2] = system: NCI-H2461 (Mesothelioma)
# Outline: as §1
# [3] = system: NCI-H28 (Mesothelioma)
# Outline: as §1
# [4] = system: SK-OV-3 (Ovarian Carcinoma)
# Outline: as §1
# [5] = system: RPMI-6666 (Non-Cancerous)
# Outline: as §1
# [6] = system: EN (Endometrial Carcinoma)
# Outline: as §1
# [7] = system: SH-4 (Melanoma)
# Outline: as §1
# [8] = system: CAL-54 (Kidney Carcinoma)
# Outline: as §1
# [9] = system: UMC-11 (Other Solid Carcinomas)
# Outline: as §1
# [10] = system: SW1116 (Colorectal Carcinoma)
# Outline: as §1
# [11] = system: HMV-II (Melanoma)
# Outline: as §1
# [12] = system: CAL-51 (Breast Carcinoma)
# Outline: as §1
# [13] = system: SU-DHL-6 (B-Cell Non-Hodgkin's Lymphoma)
# Outline: as §1
# [14] = system: OVCAR-8 (Ovarian Carcinoma)
# Outline: as §1
# [15] = system: PCI-30 (Head and Neck Carcinoma)
# Outline: as §1
# [16] = system: LoVo (Colorectal Carcinoma)
# Outline: as §1
# [17] = system: HCC-15 (Squamous Cell Lung Carcinoma)
# Outline: as §1
# [18] = system: LB771-HNC (Head and Neck Carcinoma)
# Outline: as §1
# [19] = system: HO-1-u-1 (Oral Cavity Carcinoma)
# Outline: as §1
# [20] = system: KARPAS-231 (B-Cell Non-Hodgkin's Lymphoma)
# Outline: as §1
Structure (SMILES),Bliss excess [1],Bliss excess [2],Bliss excess [3],Bliss excess [4],Bliss excess [5],Bliss excess [6],Bliss excess [7],Bliss excess [8],Bliss excess [9],Bliss excess [10],Bliss excess [11],Bliss excess [12],Bliss excess [13],Bliss excess [14],Bliss excess [15],Bliss excess [16],Bliss excess [17],Bliss excess [18],Bliss excess [19],Bliss excess [20]
"COc1nnc2ccc(N3CCC(c4ccc(OCCN5CCN(C)C(=O)[C@H]5C)cc4)CC3)nn12 [AZD5153] + Cc1c2c(nn1C)CSCc1cc(n(C)n1)CSc1cc(c3ccccc3c1)OCCCc1c(C(=O)O)n(C)c3c-2c(Cl)ccc13 [AZD5991] (first compound max 1 µM, 7x7, partner max 1 µM)",-0.0453,-0.0189,-0.0976,-0.048,-0.0409,0.0144,-0.0628,-0.0396,0.0518,0.0091,-0.0092,0.0291,-0.0326,0.0205,-0.0218,-0.0383,-0.0105,0.0475,-0.0055,-0.128
"CC(=O)c1c(C)c2cnc(Nc3ccc(N4CCNCC4)cn3)nc2n(C2CCCC2)c1=O [Palbociclib] + CC1(C)CCC(CN2CCN(c3ccc(C(=O)NS(=O)(=O)c4ccc(NCC5CCOCC5)c([N+](=O)[O-])c4)c(Oc4cnc5[nH]ccc5c4)c3)CC2)=C(c2ccc(Cl)cc2)C1 [Venetoclax] (first compound max 10 µM, 7x7, partner max 1 µM)",-0.0235,-0.0712,-0.0169,-0.0531,-0.0674,-0.0405,-0.0734,-0.008,0.0737,-0.0435,-0.0895,0.0055,0.0694,-0.0167,-0.0216,-0.0178,-0.0364,-0.0429,-0.0121,-0.103
"Cc1cc2ncnn2cc1Nc1ncc2c(n1)n(C1CCOCC1)c(=O)n2C [AZD7648] + O=C(c1cc(Cc2n[nH]c(=O)c3ccccc23)ccc1F)N1CCN(C(=O)C2CC2)CC1 [Olaparib] (first compound max 10 µM, 7x7, partner max 10 µM)",-0.0885,-0.0601,-0.0378,-0.0478,-0.0545,-0.0423,-0.0401,-0.0408,0.0471,-0.0421,-0.0181,-0.0214,-0.0263,-0.0103,-0.0695,-0.0382,-0.0059,-0.0542,-0.0481,0.0132
"CN(C)CCCOc1ccc(-c2ccc3ncc4c(c3c2)n(C2CCOCC2)c(=O)n4C)cn1 [AZD0156] + C=CCn1c(=O)c2cnc(Nc3ccc(N4CCN(C)CC4)cc3)nc2n1-c1cccc(C(C)(C)O)n1 [AZD1775] (first compound max 1 µM, partner max 1 µM)",-0.05,-0.0451,-0.0066,-0.0433,-0.009,-0.0767,-0.0219,-0.043,-0.0358,-0.0336,-0.0182,-0.0303,-0.0384,-0.0053,-0.0356,-0.0533,-0.0346,-0.0593,0.0563,0.0355
"Cn1cnc2c(F)c(Nc3ccc(Br)cc3Cl)c(C(=O)NOCCO)cc21 [Selumetinib] + C=CCn1c(=O)c2cnc(Nc3ccc(N4CCN(C)CC4)cc3)nc2n1-c1cccc(C(C)(C)O)n1 [AZD1775] (first compound max 10 µM, partner max 1 µM)",-0.0304,-0.0676,-0.0376,-0.0656,0.023,-0.126,-0.0546,-0.076,0.0137,-0.0031,-0.0494,-0.0175,-0.0229,0.0202,-0.0183,-0.0105,0.0018,-0.0937,0.0454,-0.0167
"COc1nnc2ccc(N3CCC(c4ccc(OCCN5CCN(C)C(=O)[C@H]5C)cc4)CC3)nn12 [AZD5153] + C=CCn1c(=O)c2cnc(Nc3ccc(N4CCN(C)CC4)cc3)nc2n1-c1cccc(C(C)(C)O)n1 [AZD1775] (first compound max 1 µM, partner max 1 µM)",-0.0245,-0.0344,-0.0562,-0.0428,-0.0821,-0.0753,-0.106,-0.0366,0.0058,-0.0506,-0.0783,-0.0111,-0.0656,-0.0631,-0.0307,-0.0349,-0.0356,-0.0069,-0.0526,-0.112
"CC1(C)CCC(CN2CCN(c3ccc(C(=O)NS(=O)(=O)c4ccc(NCC5CCOCC5)c([N+](=O)[O-])c4)c(Oc4cnc5[nH]ccc5c4)c3)CC2)=C(c2ccc(Cl)cc2)C1 [Venetoclax] + C[C@@H](Nc1cc(F)cc(F)c1)c1cc(C(=O)N(C)C)cc2c(=O)cc(N3CCOCC3)oc12 [AZD8186] (first compound max 1 µM, 7x7, partner max 3 µM)",0.0083,0.0092,-0.0502,-0.0984,0.0617,-0.0384,-0.0214,0.0021,-0.0263,-0.0358,0.0093,-0.0394,0.0547,-0.0162,-0.0292,0.029,0.0109,0.0083,-0.0183,-0.184
"Cn1cnc2c(F)c(Nc3ccc(Br)cc3Cl)c(C(=O)NOCCO)cc21 [Selumetinib] + CCN(CCO)CCCOc1ccc2c(Nc3cc(CC(=O)Nc4cccc(F)c4)[nH]n3)ncnc2c1 [AZD2811] (first compound max 10 µM, 7x7, partner max 1 µM)",0.0389,-0.0026,-0.0745,-0.0798,0.0696,-0.0862,-0.0324,-0.0129,-0.0446,0.0021,-0.0477,0.0356,0.0923,0.0121,-0.0396,0.0139,-0.03,-0.0486,0.0038,-0.0043
"CN(C)CCCOc1ccc(-c2ccc3ncc4c(c3c2)n(C2CCOCC2)c(=O)n4C)cn1 [AZD0156] + C[C@@H]1COCCN1C2=NC(=NC(=C2)C3(CC3)[S@](=N)(=O)C)C4=C5C=CNC5=NC=C4 [AZD6738] (first compound max 1 µM, 7x7, partner max 10 µM)",-0.0365,-0.0664,-0.0606,-0.015,-0.0187,-0.0073,0.0052,-0.0136,-0.0176,-0.034,-0.0018,0.0198,0.0136,0.0296,0.0081,-0.0191,-0.0021,-0.025,0.0189,0.0732
"Cc1c2c(nn1C)CSCc1cc(n(C)n1)CSc1cc(c3ccccc3c1)OCCCc1c(C(=O)O)n(C)c3c-2c(Cl)ccc13 [AZD5991] + C[C@@H](Nc1cc(F)cc(F)c1)c1cc(C(=O)N(C)C)cc2c(=O)cc(N3CCOCC3)oc12 [AZD8186] (first compound max 1 µM, 7x7, partner max 3 µM)",-0.0411,-0.0062,-0.0245,-0.0501,-0.0005,-0.109,0.0203,-0.004,-0.039,0.0046,-0.0401,0.0173,-0.002,0.0164,-0.0209,0.0005,-0.0047,-0.0206,-0.014,-0.0107
"NC1(C(=O)N[C@@H](CCO)c2ccc(Cl)cc2)CCN(c2ncnc3[nH]ccc23)CC1 [Capivasertib] + CCN(CCO)CCCOc1ccc2c(Nc3cc(CC(=O)Nc4cccc(F)c4)[nH]n3)ncnc2c1 [AZD2811] (first compound max 10 µM, 7x7, partner max 1 µM)",0.0228,-0.0811,-0.0484,-0.0301,-0.133,-0.0464,-0.0507,-0.0357,-0.0195,-0.0435,-0.0457,0.0519,0.0406,0.001,-0.0595,-0.0387,-0.0366,-0.0549,-0.0122,-0.111
"Cc1c2c(nn1C)CSCc1cc(n(C)n1)CSc1cc(c3ccccc3c1)OCCCc1c(C(=O)O)n(C)c3c-2c(Cl)ccc13 [AZD5991] + Cc1cc2ncnn2cc1Nc1ncc2c(n1)n(C1CCOCC1)c(=O)n2C [AZD7648] (first compound max 1 µM, 7x7, partner max 10 µM)",-0.0211,-0.0516,-0.0051,-0.032,-0.0204,-0.056,-0.0079,-0.0697,-0.0716,-0.0466,-0.067,-0.0529,0.0224,-0.0129,-0.0572,-0.0356,-0.0436,-0.0251,-0.019,-0.0639
"CC(=O)c1c(C)c2cnc(Nc3ccc(N4CCNCC4)cn3)nc2n(C2CCCC2)c1=O [Palbociclib] + Cn1cnc2c(F)c(Nc3ccc(Br)cc3Cl)c(C(=O)NOCCO)cc21 [Selumetinib] (first compound max 10 µM, 7x7, partner max 10 µM)",-0.0844,-0.0034,-0.0508,-0.0419,-0.0324,-0.0205,0.0333,-0.0125,0.079,-0.0189,-0.0203,0.0035,0.167,-0.0412,-0.0814,0.0093,-0.0069,-0.0893,0.0772,-0.134
"NC1(C(=O)N[C@@H](CCO)c2ccc(Cl)cc2)CCN(c2ncnc3[nH]ccc23)CC1 [Capivasertib] + C[C@@H]1COCCN1C2=NC(=NC(=C2)C3(CC3)[S@](=N)(=O)C)C4=C5C=CNC5=NC=C4 [AZD6738] (first compound max 10 µM, 7x7, partner max 10 µM)",-0.0968,-0.0866,-0.0702,-0.0456,-0.118,-0.039,-0.036,-0.0374,0.0252,-0.011,-0.0717,-0.0096,0.0023,-0.0485,-0.0582,-0.0575,-0.0459,-0.0503,-0.0167,-0.0334
